The results in this text go back to patent publication US20130244999A1, “Substituted Heterocyclic Compounds” (Incyte Corporation, priority 2008, published 2013).

T1 sequence (Q9H3N8 whole entry): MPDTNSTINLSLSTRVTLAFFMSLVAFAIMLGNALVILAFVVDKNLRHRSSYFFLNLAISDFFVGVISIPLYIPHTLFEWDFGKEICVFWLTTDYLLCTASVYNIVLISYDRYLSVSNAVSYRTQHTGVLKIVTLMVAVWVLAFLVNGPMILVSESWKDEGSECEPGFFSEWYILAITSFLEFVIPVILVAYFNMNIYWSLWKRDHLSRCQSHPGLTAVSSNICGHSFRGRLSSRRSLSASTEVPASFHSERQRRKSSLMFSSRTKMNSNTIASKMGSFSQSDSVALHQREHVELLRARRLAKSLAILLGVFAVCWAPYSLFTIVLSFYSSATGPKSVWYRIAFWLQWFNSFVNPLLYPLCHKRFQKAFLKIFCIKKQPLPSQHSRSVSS

The first assay concerns the target T1, histamine H4 receptor (Homo sapiens, UniProt Q9H3N8).
T1 construct: expressed in transfected cells; host or cells: HEK293SFM cells (membrane preparation)
Briefly: Inhibition of histamine H4 receptor (Table A1; H4 membrane binding assay).
Details: not given
A digest of the protocol: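 Radioligand binding was measured by filtration through PEI-treated GF/B filters with scintillation counting, using 1000× unlabeled ligand to define nonspecific binding. Membranes were prepared from HEK293SFM cells recombinantly expressing human H4 in ice-cold 50 mM Tris-HCl, pH 7.5, plus protease inhibitors.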
As to `CC1Cc2ccc(-c3cnn(C4CCOCC4)c3)cc2CN1c1cc(N2CCN(C)CC2)nc(N)n1` (stereo not drawn) [Example 95B, 4-(4-Methylpiperazin-1-yl)-6-[3-methyl-7-[1-(tetrahydro-2H-pyran-4-yl)-1H-pyrazol-4-yl]-3,4-dihydroisoquinolin-2(1H)-yl]pyrimidin-2-amine], 1 µM produced 79% inhibition.
For `CC1Cc2ccc(-c3cnn(C4CCS(=O)(=O)C4)c3)cc2CN1c1cc(N2CCN(C)CC2)nc(N)n1` (stereo not drawn) [Example 98B, 4-[7-[1-(1,1-dioxidotetrahydro-3-thienyl)-1H-pyrazol-4-yl]-3-methyl-3,4-dihydroisoquinolin-2(1H)-yl]-6-(4-methylpiperazin-1-yl)pyrimidin-2-amine], the inhibition at 1 µM came out at 56%.

The same assay, now with this note: histamine H4 receptor; "> a" = exceeds experiment limit.
As to `CN1CCN(c2cc(N3CCc4ccc(N5CCC(O)(c6ccccc6)CC5)cc4C3)nc(N)n2)CC1` [Example 37, 1-{2-[2-Amino-6-(4-methylpiperazin-1-yl)pyrimidin-4-yl]-1,2,3,4-tetrahydroisoquinolin-7-yl}-4-phenylpiperidin-4-ol], the IC50 was 579 nM.
`CN1CCN(c2cc(N3CCc4ccc(N5CCC(c6ccncc6)CC5)cc4C3)nc(N)n2)CC1` [Example 38, 4-(4-Methylpiperazin-1-yl)-6-[7-(4-pyridin-4-ylpiperidin-1-yl)-3,4-dihydroisoquinolin-2(1H)-yl]pyrimidin-2-amine] yielded an IC50 of 186 nM.
`CNC(=O)c1ccc(C2CCN(c3ccc4c(c3)CN(c3cc(N5CCN(C)CC5)nc(N)n3)CC4)CC2)cc1` [Example 39, 4-(1-{2-[2-Amino-6-(4-methylpiperazin-1-yl)pyrimidin-4-yl]-1,2,3,4-tetrahydroisoquinolin-7-yl}piperidin-4-yl)-N-methylbenzamide] yielded an IC50 of 51 nM.
Same read-out and setting: the result for `CN1CCN(c2cc(N3CCc4ccc(N5CCC(c6ccc(C(N)=O)cc6)CC5)cc4C3)nc(N)n2)CC1` [Example 40, 4-(1-{2-[2-Amino-6-(4-methylpiperazin-1-yl)pyrimidin-4-yl]-1,2,3,4-tetrahydroisoquinolin-7-yl}piperidin-4-yl)benzamide] reads 39 nM.
For `CN1CCN(c2cc(N3CCc4ccc(N5CCC(c6ccn(C)c(=O)c6)CC5)cc4C3)nc(N)n2)CC1` [Example 41, 4-(1-{2-[2-Amino-6-(4-methylpiperazin-1-yl)pyrimidin-4-yl]-1,2,3,4-tetrahydroisoquinolin-7-yl}piperidin-4-yl)-1-methylpyridin-2(1H)-one], the IC50 is 38 nM.
The compound `CN1CCN(c2cc(N3CCc4ccc(N5CCC(c6ccc(=O)n(C)c6)CC5)cc4C3)nc(N)n2)CC1` [Example 42, 5-(1-{2-[2-Amino-6-(4-methylpiperazin-1-yl)pyrimidin-4-yl]-1,2,3,4-tetrahydroisoquinolin-7-yl}piperidin-4-yl)-1-methylpyridin-2(1H)-one] came in with an IC50 of 81 nM.
Still for that read-out and setting: the result for `CN1CCN(c2cc(N3CCc4ccc(-c5ccn(C)c(=O)c5)cc4C3)nc(N)n2)CC1` [Example 43, 4-{2-[2-Amino-6-(4-methylpiperazin-1-yl)pyrimidin-4-yl]-1,2,3,4-tetrahydroisoquinolin-7-yl}-1-methylpyridin-2(1H)-one] reads 99 nM; that for `CNC(=O)c1ccc(N2CCN(c3ccc4c(c3)CN(c3cc(N5CCN(C)CC5)nc(N)n3)CC4)C(=O)C2)nc1` [Example 44, 6-(4-{2-[2-Amino-6-(4-methylpiperazin-1-yl)pyrimidin-4-yl]-1,2,3,4-tetrahydroisoquinolin-7-yl}-3-oxopiperazin-1-yl)-N-methylnicotinamide], 93 nM.
Regarding `CNC(=O)c1ncc(-c2ccc3c(c2)CN(c2cc(N4CCN(C)CC4)nc(N)n2)CC3)cc1C` [Example 45, 5-{2-[2-Amino-6-(4-methylpiperazin-1-yl)pyrimidin-4-yl]-1,2,3,4-tetrahydroisoquinolin-7-yl}-N,3-dimethylpyridine-2-carboxamide], the IC50 stood at 106 nM.
Same read-out and setting: in the case of `Cc1cc(-c2ccc3c(c2)CN(c2cc(N4CCN(C)CC4)nc(N)n2)CC3)cnc1C(=O)N(C)C` [Example 46, 5-{2-[2-Amino-6-(4-methylpiperazin-1-yl)pyrimidin-4-yl]-1,2,3,4-tetrahydroisoquinolin-7-yl}-N,N,3-trimethylpyridine-2-carboxamide] it was 173 nM; in that of `CNC(=O)c1csc(-c2ccc3c(c2)CN(c2cc(N4CCN(C)CC4)nc(N)n2)CC3)n1` [Example 47, 2-{2-[2-Amino-6-(4-methylpiperazin-1-yl)pyrimidin-4-yl]-1,2,3,4-tetrahydroisoquinolin-7-yl}-N-methyl-1,3-thiazole-4-carboxamide], 127 nM; in that of `CN1CCN(c2cc(N3CCc4ccc(-c5nc(C(=O)N6CCCC6)cs5)cc4C3)nc(N)n2)CC1` [Example 48, 4-(4-Methylpiperazin-1-yl)-6-[7-[4-(pyrrolidin-1-ylcarbonyl)-1,3-thiazol-2-yl]-3,4-dihydroisoquinolin-2(1H)-yl]pyrimidin-2-amine], 200 nM.
Same read-out and setting: in the case of `CNC(=O)c1ccc(-c2ccc3c(c2)CN(c2cc(N4CCN(C)CC4)nc(N)n2)C(C)C3)cn1` (stereo not drawn) [Example 49, 5-{2-[2-Amino-6-(4-methylpiperazin-1-yl)pyrimidin-4-yl]-3-methyl-1,2,3,4-tetrahydroisoquinolin-7-yl}-N-methylpyridine-2-carboxamide] it was 42 nM; in that of `CC1Cc2ccc(-c3ccc(C(=O)N4CCC(N(C)C)C4)nc3)cc2CN1c1cc(N2CCN(C)CC2)nc(N)n1` (stereo not drawn) [Example 57, 4-[7-(6-{[3-(Dimethylamino)pyrrolidin-1-yl]carbonyl}pyridin-3-yl)-3-methyl-3,4-dihydroisoquinolin-2(1H)-yl]-6-(4-methylpiperazin-1-yl)pyrimidin-2-amine], 119 nM; in that of `CC1Cc2ccc(-c3ccc(C(=O)N4CCN(C)CC4)nc3)cc2CN1c1cc(N2CCN(C)CC2)nc(N)n1` (stereo not drawn) [Example 58, 4-[3-Methyl-7-{6-[(4-methylpiperazin-1-yl)carbonyl]pyridin-3-yl}-3,4-dihydroisoquinolin-2 (1H)-yl]-6-(4-methylpiperazin-1-yl)pyrimidin-2-amine], 144 nM.
For the compound `CC1Cc2ccc(-c3ccc(C(=O)NCCO)nc3)cc2CN1c1cc(N2CCN(C)CC2)nc(N)n1` (stereo not drawn) [Example 59, 5-{2-[2-Amino-6-(4-methylpiperazin-1-yl)pyrimidin-4-yl]-3-methyl-1,2,3,4-tetrahydroisoquinolin-7-yl}-N-(2-hydroxyethyl)pyridine-2-carboxamide], the IC50 turned out to be 54 nM.
Consider `CNC(=O)Cn1cc(-c2ccc3c(c2)CN(c2cc(N4CCN(C)CC4)nc(N)n2)C(C)C3)cn1` (stereo not drawn) [Example 79, 2-(4-{2-[2-Amino-6-(4-methylpiperazin-1-yl)pyrimidin-4-yl]-3-methyl-1,2,3,4-tetrahydroisoquinolin-7-yl}-1H-pyrazol-1-yl)-N-methylacetamide], for which the IC50 turned out to be 108 nM.
Consider `CC1Cc2ccc(-c3cnn(CC(=O)N(C)C)c3)cc2CN1c1cc(N2CCN(C)CC2)nc(N)n1` (stereo not drawn) [Example 80, 2-(4-{2-[2-Amino-6-(4-methylpiperazin-1-yl)pyrimidin-4-yl]-3-methyl-1,2,3,4-tetrahydroisoquinolin-7-yl}-1H-pyrazol-1-yl)-N,N-dimethylacetamide], for which the IC50 amounted to 106 nM.
As to `Cc1nc(-c2ccc3c(c2)CN(c2cc(N4CCN(C)CC4)nc(N)n2)C(C)C3)cs1` (stereo not drawn) [Example 116, 4-[3-Methyl-7-(2-methyl-1,3-thiazol-4-yl)-3,4-dihydroisoquinolin-2(1H)-yl]-6-(4-methylpiperazin-1-yl)pyrimidin-2-amine], the IC50 stood at 20 nM.

In general, inhibition refers to the change of the read-out against control, counted positive when it falls. Read a low inhibition as little suppression. The term IC50 denotes the concentration needed to halve the response being measured.
